Results from EPA's CvTdb concentration-time database (doi:10.1093/toxsci/kfy020).

Test system: rat
Test: concentration in plasma after dosing
Details: dosed: Ondansetron, male, Sprague-Dawley

Cc1nccn1CC1CCc2c(c3ccccc3n2C)C1=O (stereo not given) [Ondansetron]
concentration in plasma [µg/mL]
Details | 1.0000000000 mg/kg | 4.0000000000 mg/kg | 8.0000000000 mg/kg | 20.0000000000 mg/kg
0.05 h, iv | 0.781 | 3.05 | 6.28 | 17.6
0.05 h, oral | – | 0.07 | 0.1 | 0.491
0.25 h, iv | 0.231 | 0.83 | 1.86 | 5.55
0.5 h, iv | 0.129 | 0.429 | 0.96 | 2.93
0.5 h, oral | – | 0.0491 | 0.092 | 0.288
0.75 h, iv | 0.0726 | 0.256 | 0.597 | 1.86
1 h, iv | 0.0471 | 0.176 | 0.379 | 1.26
1 h, oral | – | 0.0235 | 0.0406 | 0.165
1 min, iv | 16.2 | 37.1 | 104 | 175
1.25 h, iv | 0.0311 | 0.112 | 0.246 | 0.813
1.5 h, iv | – | 0.0757 | 0.176 | 0.561
1.5 h, oral | – | – | 0.0214 | 0.0827
2 h, iv | – | 0.0383 | 0.0874 | 0.308
2 h, oral | – | – | – | 0.0468
2.5 h, iv | – | – | 0.0442 | 0.184
3 h, iv | – | – | 0.0233 | 0.101
4 h, iv | – | – | – | 0.0391
5 min, oral | – | 0.244 | 0.249 | 1.11
7 min, iv | 0.42 | 1.48 | 3.24 | 10.1
10 min, oral | – | 0.171 | 0.298 | 0.808
20 min, oral | – | 0.0837 | 0.138 | 0.441
40 min, oral | – | 0.0396 | 0.07 | 0.255
50 min, oral | – | 0.0302 | 0.0579 | 0.197
